What was measured:
Plasmodium falciparum [1] = assay: Antiplasmodial activity against chloroquine-sensitive Plasmodium falciparum D10 infected in human type A-positive RBC assessed as inhibition of parasite LDH activity after 72 hrs by spectrophotometrically; format: functional, organism-based; settings: D10, 72 h
Plasmodium falciparum [2] = assay: Antiplasmodial activity against chloroquine-resistant Plasmodium falciparum W2 infected in human type A-positive RBC assessed as inhibition of parasite LDH activity after 72 hrs by spectrophotometric analysis; format: functional, organism-based; settings: W2, 72 h

SMILES	IC50 (Plasmodium falciparum [1]) [µM]	IC50 (Plasmodium falciparum [2]) [µM]
CCC(CC)C[C@@]1(C)C[C@@H](CC)[C@@H](CC(=O)OC)OO1	0.89	0.64
CCC(CC)C[C@]1(C)C[C@@H](CC)[C@@H](CC(=O)OC)OO1	2.4	0.87
CCC(CC)C[C@@]1(C)C[C@@H](CC)[C@@H]([C@H](O)CO)OO1	1.2	0.84
CCC(CC)C[C@]1(C)C[C@@H](CC)[C@@H]([C@H](O)CO)OO1	2.4	1.3
CC[C@@H]1CC(C)(C)OO[C@@H]1[C@H](O)CO	> 10	> 10
CC[C@@H]1CC(C)(C)OO[C@@H]1[C@H](O)COC(C)=O	> 10	> 10
CCCCC1(C)C[C@]2(C)CCO[C@@H]2OO1 (mixture of isomers)	2.9	1.4
CCCCCC1(C)C[C@]2(C)CCO[C@@H]2OO1 (mixture of isomers)	2.9	1.5
CCC(CC)CC1(C)C[C@]2(C)CCO[C@@H]2OO1 (mixture of isomers)	0.76	0.39
CC1(CC2CCCC2)C[C@]2(C)CCO[C@@H]2OO1 (mixture of isomers)	0.55	0.34
CC1(CC2CCCCC2)C[C@]2(C)CCO[C@@H]2OO1 (mixture of isomers)	0.49	0.36
CC1(CC2C3CC4CC(C3)CC2C4)C[C@]2(C)CCO[C@@H]2OO1 (mixture of isomers)	0.23	0.15
CCCCC1(C)C[C@@H]2CCO[C@@H]2OO1 (mixture of isomers)	> 10	> 10
CCCCCC1(C)C[C@@H]2CCO[C@@H]2OO1 (mixture of isomers)	> 10	> 10
CCC(CC)CC1(C)C[C@@H]2CCO[C@@H]2OO1 (mixture of isomers)	> 10	8.6
CC(C)c1ccccc1[C@H]1C[C@]2(C)CCO[C@@H]2OO1 (racemic)	8.3	4.6
CC1(C)C[C@]2(C)CCO[C@@H]2OO1 (racemic)	> 10	> 10
CC[C@@]12CCO[C@@H]1OOC(C)(C)C2 (racemic)	> 10	> 10
CC(C)C[C@@]12CCO[C@@H]1OOC(C)(C)C2 (racemic)	> 10	> 10
C[C@@]12CCO[C@@H]1OO[C@@H](c1ccccc1)C2 (racemic)	> 20	> 20
Cc1ccccc1[C@H]1C[C@]2(C)CCO[C@@H]2OO1 (racemic)	> 20	11
CCc1ccccc1[C@H]1C[C@]2(C)CCO[C@@H]2OO1 (racemic)	15	7.7
CC(C)Cc1ccccc1[C@H]1C[C@]2(C)CCO[C@@H]2OO1 (racemic)	13	5.7
C[C@@]12CCO[C@@H]1OO[C@H](c1ccccc1)C2 (racemic)	> 20	> 20
Cc1ccccc1[C@@H]1C[C@]2(C)CCO[C@@H]2OO1 (racemic)	> 20	> 20
CCc1ccccc1[C@@H]1C[C@]2(C)CCO[C@@H]2OO1 (racemic)	> 20	> 20
CC1(C)C[C@@H]2CCO[C@@H]2OO1 (relative stereo)	> 10	> 10
